Tests used:
Format in all cases: biochemical
AKT-3 = AKT-3 (Homo sapiens, UniProt Q9Y243); test: AKT-3 inhibition assay (standard coupled enzyme assay); conditions: 170 μM ATP, 200 μM peptide, 45 nM AKT, 30° C.
Protocol: Assays were carried out in a mixture of 100 mM HEPES 7.5, 10 mM MgCl2, 25 mM NaCl, 1 mM DTT and 3% DMSO. Final substrate concentrations in the assay were 170 μM ATP (Sigma Chemicals) and 200 μM peptide (RPRAATF, American Peptide, Sunnyvale, Calif.). Assays were carried out at 30° C. and 45 nM AKT. Final concentrations of the components of the coupled enzyme system were 2.5 mM phosphoenolpyruvate, 300 μM NADH, 30 μg/ML pyruvate kinase and 10 μg/ml lactate dehydrogenase.
An assay stock buffer solution was prepared containing all of the reagents listed above, with the exception of AKT, DTT, and the test compound of interest. 55 μl of the stock solution was placed in a 96 well plate followed by addition of 2 μl of 1 mM DMSO stock containing the test compound (final compound concentration 30 μM). The plate was pre-incubated for about 10 minutes at 30° C. and the reaction initiated by addition of 10 μl of enzyme (final concentration 45 nM) and 1 mM DTF. Rates of reaction were obtained using a Molecular Devices SpectraMax Plus plate reader over a 15 minute read time at 30° C.

PDK-1 = biological target: T1, PDK-1 (Homo sapiens, UniProt O15530); test: PDK-1 inhibition assay (radioactive-phosphate incorporation); conditions: 40 μM ATP, 65 μM PDKtide, 25 nM PDK-1, 30° C.
T1 sequence (O15530 1-556): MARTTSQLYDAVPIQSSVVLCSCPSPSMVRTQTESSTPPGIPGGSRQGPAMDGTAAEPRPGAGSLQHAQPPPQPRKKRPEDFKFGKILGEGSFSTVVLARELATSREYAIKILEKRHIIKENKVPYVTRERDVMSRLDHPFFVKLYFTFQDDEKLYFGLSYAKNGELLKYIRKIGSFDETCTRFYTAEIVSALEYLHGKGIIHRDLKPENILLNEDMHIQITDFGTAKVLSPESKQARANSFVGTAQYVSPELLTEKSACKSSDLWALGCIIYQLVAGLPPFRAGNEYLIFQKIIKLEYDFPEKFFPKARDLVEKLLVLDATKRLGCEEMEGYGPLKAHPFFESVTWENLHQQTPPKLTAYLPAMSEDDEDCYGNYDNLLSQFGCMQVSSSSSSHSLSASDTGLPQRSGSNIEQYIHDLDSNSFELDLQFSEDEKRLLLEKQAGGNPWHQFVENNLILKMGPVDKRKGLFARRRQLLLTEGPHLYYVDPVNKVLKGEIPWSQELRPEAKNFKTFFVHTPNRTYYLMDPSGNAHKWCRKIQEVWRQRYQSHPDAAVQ

PKA = PKA (Homo sapiens, UniProt P17612); test: PKA inhibition assay (standard coupled enzyme assay); conditions: 50 μM ATP, 80 μM Kemptide, 18 nM PKA, 30° C.
Protocol: Compounds were screened for their ability to inhibit PKA using a standard coupled enzyme assay (Fox et al., Protein Sci., (1998) 7, 2249). Assays were carried out in a mixture of 100 mM HEPES 7.5, 10 mM MgCl2, 25 mM NaCl, 1 mM DTT and 3% DMSO. Final substrate concentrations in the assay were 50 μM ATP (Sigma Chemicals) and 80 μM peptide (Kemptide, American Peptide, Sunnyvale, Calif.). Assays were carried out at 30° C. and 18 nM PKA. Final concentrations of the components of the coupled enzyme system were 2.5 mM phosphoenolpyruvate, 300 μM NADH, 30 μg/ml pyruvate kinase and 10 μg/ml lactate dehydrogenase.
An assay stock buffer solution was prepared containing all of the reagents listed above, with the exception of ATP, and the test compound of interest. 55 μl of the stock solution was placed in a 96 well plate followed by addition of 2 μl of DMSO stock containing serial dilutions of the test compound (typically starting from a final concentration of 5 μM). The plate was preincubated for 10 minutes at 30° C. and the reaction initiated by addition of 5 μl of ATP (final concentration 50 μM). Initial reaction rates were determined with a Molecular Devices SpectraMax Plus plate reader over a 15 minute time course. IC50 and Ki data were calculated from non-linear regression analysis using the Prism software package (GraphPad Prism version 3.0a for Macintosh, GraphPad Software, San Diego Calif., USA).

Sequence of AKT-3 (Q9Y243 whole entry): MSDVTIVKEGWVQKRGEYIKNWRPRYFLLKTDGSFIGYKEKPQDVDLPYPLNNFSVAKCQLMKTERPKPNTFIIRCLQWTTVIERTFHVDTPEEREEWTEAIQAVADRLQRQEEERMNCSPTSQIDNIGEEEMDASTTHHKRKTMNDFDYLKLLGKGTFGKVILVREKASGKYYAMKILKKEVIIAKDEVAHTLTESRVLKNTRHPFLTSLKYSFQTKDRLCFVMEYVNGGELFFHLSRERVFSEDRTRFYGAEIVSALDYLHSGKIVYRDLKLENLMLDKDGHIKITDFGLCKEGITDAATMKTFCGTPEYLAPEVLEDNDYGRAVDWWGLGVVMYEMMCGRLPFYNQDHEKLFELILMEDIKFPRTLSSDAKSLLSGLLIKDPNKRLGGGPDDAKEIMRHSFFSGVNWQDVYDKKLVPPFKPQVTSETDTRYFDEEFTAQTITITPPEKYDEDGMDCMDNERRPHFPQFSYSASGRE

NCCC(C(=O)Nc1cc(Br)c2[nH]nc(Cl)c2c1)c1ccc(Cl)c(Cl)c1 (stereo not drawn) [Compound I-145]
Ki (AKT-3): < 1000 nM | Ki (PDK-1): > 3000 nM | Ki (PKA): < 1000 nM

NCCC(C(=O)Nc1ccc2[nH]nc(Cl)c2c1)c1ccc(Cl)c(Cl)c1 (stereo not drawn) [Compound I-121]
Ki (AKT-3): < 1000 nM | Ki (PDK-1): < 1000 nM | Ki (PKA): < 1000 nM

Cc1n[nH]c2ccc(NC(=O)[C@H](CCN)c3cccc(Cl)c3F)cc12 [Compound I-125]
Ki (AKT-3): < 1000 nM | Ki (PDK-1): < 1000 nM | Ki (PKA): < 1000 nM

NCCC(C(=O)Nc1ccc2[nH]nc(NC(=O)c3ccc(Cl)c(Cl)c3)c2c1)c1ccc(Cl)c(Cl)c1 (stereo not drawn) [Compound I-183]
Ki (AKT-3): < 1000 nM | Ki (PDK-1): > 3000 nM | Ki (PKA): < 1000 nM

Cc1n[nH]c2ccc(NC(=O)C(CCN)c3cccc(Cl)c3Cl)cc12 (stereo not drawn) [Compound I-120]
Ki (AKT-3): < 1000 nM | Ki (PDK-1): < 1000 nM | Ki (PKA): < 1000 nM

NCC(C(=O)Nc1ccc2[nH]ncc2c1)c1ccc(Cl)c(Cl)c1 (stereo not drawn) [Compound I-99]
Ki (AKT-3): < 1000 nM | Ki (PDK-1): > 3000 nM | Ki (PKA): < 1000 nM

Cc1cc(NC(=O)C(CCN)c2ccc(Cl)c(Cl)c2)cc2cn[nH]c12 (stereo not drawn) [Compound I-147]
Ki (AKT-3): < 1000 nM | Ki (PDK-1): 1000 to 3000 nM | Ki (PKA): < 1000 nM

COc1ccc(C(=O)Nc2n[nH]c3ccc(NC(=O)C(CCN)c4ccc(Cl)c(Cl)c4)cc23)cc1 (stereo not drawn) [Compound I-168]
Ki (AKT-3): < 1000 nM | Ki (PDK-1): < 1000 nM | Ki (PKA): < 1000 nM

N#Cc1ccc(C(=O)Nc2n[nH]c3ccc(NC(=O)C(CCN)c4ccc(Cl)c(Cl)c4)cc23)cc1 (stereo not drawn) [Compound I-174]
Ki (AKT-3): < 1000 nM | Ki (PDK-1): < 1000 nM | Ki (PKA): < 1000 nM

Cc1n[nH]c2ccc(NC(=O)C(CCN)c3ccc(Cl)cc3F)cc12 (stereo not drawn) [Compound I-132]
Ki (AKT-3): < 1000 nM | Ki (PDK-1): < 1000 nM | Ki (PKA): < 1000 nM

NCCC(C(=O)Nc1ccc2[nH]nc(NC(=O)c3cc(Cl)cc(Cl)c3)c2c1)c1ccc(Cl)c(Cl)c1 (stereo not drawn) [Compound I-184]
Ki (AKT-3): < 1000 nM | Ki (PDK-1): > 3000 nM | Ki (PKA): < 1000 nM

Cc1n[nH]c2ccc(NC(=O)C(CCN)c3cccc(Cl)n3)cc12 (stereo not drawn) [Compound I-129]
Ki (AKT-3): < 1000 nM | Ki (PDK-1): 1000 to 3000 nM | Ki (PKA): < 1000 nM

C#Cc1n[nH]c2ccc(NC(=O)C(CCN)c3ccc(Cl)c(Cl)c3)cc12 (stereo not drawn) [Compound I-124]
Ki (AKT-3): < 1000 nM | Ki (PDK-1): 1000 to 3000 nM | Ki (PKA): < 1000 nM

Cc1cccc(C(CCN)C(=O)Nc2ccc3[nH]nc(C)c3c2)c1 (stereo not drawn) [Compound I-131]
Ki (AKT-3): < 1000 nM | Ki (PDK-1): > 3000 nM | Ki (PKA): < 1000 nM

NCCC(C(=O)Nc1ccc2[nH]nc(-c3ccccc3)c2c1)c1ccc(Cl)c(Cl)c1 (stereo not drawn) [Compound I-119]
Ki (AKT-3): < 1000 nM | Ki (PDK-1): < 1000 nM | Ki (PKA): < 1000 nM

NCCC(C(=O)Nc1ccc2[nH]nc(NCc3ccccc3)c2c1)c1ccc(Cl)c(Cl)c1 (stereo not drawn) [Compound I-158]
Ki (AKT-3): 1000 to 10000 nM | Ki (PDK-1): 1000 to 3000 nM | Ki (PKA): < 1000 nM

CCOc1cccc(C(=O)Nc2n[nH]c3ccc(NC(=O)C(CCN)c4ccc(Cl)c(Cl)c4)cc23)c1 (stereo not drawn) [Compound I-181]
Ki (AKT-3): < 1000 nM | Ki (PDK-1): < 1000 nM | Ki (PKA): < 1000 nM

NCC(C(=O)Nc1ccc2[nH]nc(-c3ccccc3)c2c1)c1ccc(Cl)c(Cl)c1 (stereo not drawn) [Compound I-231]
Ki (AKT-3): < 1000 nM | Ki (PDK-1): < 1000 nM | Ki (PKA): < 1000 nM

CCc1ccc(C(=O)Nc2n[nH]c3ccc(NC(=O)C(CCN)c4ccc(Cl)c(Cl)c4)cc23)cc1 (stereo not drawn) [Compound I-187]
Ki (AKT-3): < 1000 nM | Ki (PDK-1): 1000 to 3000 nM | Ki (PKA): < 1000 nM

NCCC(C(=O)Nc1ccc2[nH]ncc2c1)c1cccc(N)c1 (stereo not drawn) [Compound I-107]
Ki (AKT-3): 1000 to 10000 nM | Ki (PDK-1): 1000 to 3000 nM | Ki (PKA): < 1000 nM

NCCC(C(=O)Nc1ccc2[nH]nc(NC(=O)c3cccc(Br)c3)c2c1)c1ccc(Cl)c(Cl)c1 (stereo not drawn) [Compound I-186]
Ki (AKT-3): < 1000 nM | Ki (PDK-1): 1000 to 3000 nM | Ki (PKA): < 1000 nM

NCCC(C(=O)Nc1ccc2[nH]nc(NC(=O)c3cccc(Cl)c3)c2c1)c1ccc(Cl)c(Cl)c1 (stereo not drawn) [Compound I-160]
Ki (AKT-3): < 1000 nM | Ki (PDK-1): 1000 to 3000 nM | Ki (PKA): < 1000 nM

Source: patent US7041687B2, “Indazole compounds useful as protein kinase inhibitors” (Vertex Pharmaceuticals Incorporated, priority 2002, dated 2006)
